How the values were obtained:
[1] = system: BRAF^V600E CRC cell lines; assay: Cell viability assays, drug combinations, shift in vemurafenib sensitivity and combination index; format: cell-based; details: FIG. 5C
Protocol: To assess the growth/survival response of cell lines to single or combinatorial drug treatments, we used CellTiter-Glo cell viability assay (Promega; cat #G7571). Cell culture and luminescence readouts were performed in 96- and 384-well plates after 3-day treatments.
To calculate CI values in FIGS. 2A, 2B, 2E, FIGS. 5C, 5E, 5G and FIG. 6A, we applied the Bliss Independence model (54,55), which uses experimental profiles and avoids inaccuracies that commonly occur with dose-effect curve estimation approaches. CI is calculated as CI=−log 2 (Eab/(Ea*Eb)), where Ea and Eb correspond to the effects of drugs a and b alone at a given concentration, and Eab corresponds to the combined effects of drugs a and b at these same concentrations. In this model, CI>0 indicates synergistic effect, CI=0 indicates additivity effect, CI<0 indicates antagonistic effect.
To compare the effects of triple versus dual drug combinations in FIG. 3B, we calculated CI as follow: CI=−log 2 (Eabc/(Ea*Eb)), where Ea and Eb correspond to the effects of drugs a/VEM, b/GEF alone at a given concentration, and Eabc corresponds to the combined effects of drugs a and b at these same concentrations combined with a third drug (c/DAS) at the cell line-specific GI50 of DAS.

SFK = assay: Western blot of SFK activation (Y419 phosphorylation); format: cell-based; details: BRAF^V600E CRC cell lines
Protocol: (§1) For samples to be analyzed with the HT-KAM platform, cells at ˜85% confluency were washed three times with cold PBS and lysed with freshly prepared 1× cell lysis buffer (1 ml per 2.5×10^6 cells) (lOX Cell Lysis Buffer, Cell Signaling; cat. #9803) complemented with 1× of Halt Protease & Phosphatase (100×, ThermoScientific; cat. #1861281). Cell lysates were collected and spun down at 14,000 rpm for 15 min at 4° C. and supernatants stored at −80° C. For samples to be analyzed by western blot, cell lysates were prepared with RIPA lysis buffer (150 mM NaCl, 0.1% SDS, 1% Nonidet P40, 1% sodium deoxycholate and 10 mM sodium phosphate, pH 7.2) supplemented with protease and phosphatase inhibitors. After clearing by centrifugation at 12,000 rpm for 10 minutes at 4° C., the lysates were analyzed as described in the respective experiments.
(§2) For western-blot, samples were denatured by boiling in 1× Laemmli buffer and run on an 8% SDS-PAGE gel. After transfer onto a PVDF membrane and blocking with 3% BSA, the membranes were incubated with primary antibodies overnight at 4° C., washed 3 times with TBST (Tris-buffered saline containing 0.05% Tween-20), incubated with secondary antibodies for 1 hour at room temperature and developed using chemoluminescence (cat #32209 from Pierce).
Antibodies anti-HSP90 was procured from Santa Cruz Biotechnologies (H-114, cat #7947). […]

[2] = system: beta-catenin (CTNNB1) Y654; assay: Western blot of beta-catenin Y654 phosphorylation; format: cell-based; details: BRAF^V600E CRC cell lines, FIG. 4A, 11C, 12A
Protocol: as §1, §2

SRC = assay: Automated IHC of active and total SRC in PDX tumors; format: in vivo, mice; details: both PDX models after 3 or 21 days of treatment; FIGS. 1E, 1F, 8B, 8C
Protocol: Primary antibody was diluted in Discovery Ab Diluent.
To detect phospho-Y419 SRC, phospho-Src (Y419) […] rabbit polyclonal supplied by R&D Systems (Cat #AF2685) was used at a titration of 1:50. […] Inhibitor was applied for 16 min.
To detect total SRC, TOTAL SRC (36D1) rabbit monoclonal manufactured by Cell Signaling Technology (Cat #2109) was used at a titration of 1:800. […] Inhibitor was applied for 16 minutes.

A375 = assay: Cell viability assay (CellTiter-Glo), GI50, 3-day treatment; format: cell-based; details: Homo sapiens, A-375, 72 h; A375 (BRAF^V600E melanoma); 50% growth inhibition after 3 days of treatment compared to control; read-out: GI50 concentrations
Protocol: (§3) To assess the growth/survival response of cell lines to single or combinatorial drug treatments, we used CellTiter-Glo cell viability assay (Promega; cat #G7571). Cell culture and luminescence readouts were performed in 96- and 384-well plates after 3-day treatments. GI50 corresponds to the concentration of a given drug that causes 50% inhibition of cell growth (GI50). The effects of drug combinations on cell growth were assessed by calculating fold change in VEM-sensitivity and combination index (C.I.) that were experimentally measured from ≥9 individual datapoints around drugs' GI50, i.e. at GI50, 0.5×GI50, 2×GI50 concentrations of each drug per drug combination experiment. To address the particular effects of some drug treatments on some cell lines, the choice of experimental datapoints centered around drugs' GI50 effects was adjusted by including individual datapoints ranging from ≥GI25 to ≤GI75, leading to calculate fold change in VEM-sensitivity and combination index (C.I.) from 12 to 20 individual datapoints, as previously explained (7).

HT29 = assay: as above; format: cell-based; details: Homo sapiens, HT-29, 72 h; HT29 (BRAF^V600E CRC); 50% growth inhibition after 3 days of treatment compared to control; read-out: GI50 concentrations
Protocol: as §3

KM20 = assay: as above; format: cell-based; details: 72 h; KM20 (BRAF^V600E CRC); 50% growth inhibition after 3 days of treatment compared to control; read-out: GI50 concentrations
Protocol: as §3

LIM2405 = assay: as above; format: cell-based; details: 72 h; LIM2405 (BRAF^V600E CRC); 50% growth inhibition after 3 days of treatment compared to control; read-out: GI50 concentrations
Protocol: as §3

LS411N = assay: as above; format: cell-based; details: Homo sapiens, LS-411N, 72 h; LS411N (BRAF^V600E CRC); 50% growth inhibition after 3 days of treatment compared to control; read-out: GI50 concentrations
Protocol: as §3

OUMS23 = assay: as above; format: cell-based; details: OUMS-23, 72 h; OUMS23 (CRC MAP3K8^amp); 50% growth inhibition after 3 days of treatment compared to control; read-out: GI50 concentrations
Protocol: as §3

RKO1 = assay: as above; format: cell-based; details: 72 h; RKO1 (BRAF^V600E CRC); 50% growth inhibition after 3 days of treatment compared to control; read-out: GI50 concentrations
Protocol: as §3

SNUC5 = assay: as above; format: cell-based; details: 72 h; SNUC5 (BRAF^V600E CRC); 50% growth inhibition after 3 days of treatment compared to control; read-out: GI50 concentrations
Protocol: as §3

Sk-Mel-28 = assay: as above; format: cell-based; details: Homo sapiens, 72 h; Sk-Mel-28 (BRAF^V600E melanoma); 50% growth inhibition after 3 days of treatment compared to control; read-out: GI50 concentrations
Protocol: as §3

VACO432 = assay: as above; format: cell-based; details: 72 h; VACO432 (BRAF^V600E CRC); 50% growth inhibition after 3 days of treatment compared to control; read-out: GI50 concentrations
Protocol: as §3

WiDr = assay: as above; format: cell-based; details: Homo sapiens, 72 h; WiDr (BRAF^V600E CRC); 50% growth inhibition after 3 days of treatment compared to control; read-out: GI50 concentrations
Protocol: as §3

| GI50 (A375) | GI50 (HT29) | GI50 (SNUC5) | Compound | increase in resistance to vemurafenib ([1]; BRAF^V600E CRC cells treated with PGE2, 3-day cell viability assays) | CI scores ([1]; PGE2 with vemurafenib in BRAF^V600E CRC cells, Bliss model) | SFK activation (phosphorylation of Y419) (SFK) | phosphorylation of beta-catenin (CTNNB1) at Y654 [2] | active and total SRC (IHC) (SRC) | GI50 (KM20) | GI50 (LIM2405) | GI50 (LS411N) | GI50 (OUMS23) | GI50 (RKO1) | GI50 (Sk-Mel-28) | GI50 (VACO432) | GI50 (WiDr) |
| --- | --- | --- | --- | --- | --- | --- | --- | --- | --- | --- | --- | --- | --- | --- | --- | --- |
|  |  |  | CCCCC[C@H](O)/C=C/[C@H]1[C@H](O)CC(=O)[C@@H]1C/C=C\CCCC(=O)O [PGE2, Prostaglandin E2] | 2 to 4 fold | antagonism | increase in SFK activation | increase in phosphorylation |  |  |  |  |  |  |  |  |  |
|  |  |  | CC(C)(C)c1nc(-c2cccc(NS(=O)(=O)c3c(F)cccc3F)c2F)c(-c2ccnc(N)n2)s1 [dabrafenib, N-[3-[5-(2-Amino-4-pyrimidinyl)-2-(2-methyli-2-propanyl)-1,3-tliazol-4-yl]-2-fluorophenyl]-2,6-difluorobenzenesulfonarmide] |  |  |  |  | statistically significant increases |  |  |  |  |  |  |  |  |
| 3.5 µM | 8 µM | 6.5 µM | Cc1nc(Nc2ncc(C(=O)Nc3c(C)cccc3Cl)s2)cc(N2CCN(CCO)CC2)n1 [dasatinib, N-(2-chloro-6-mnethylphenyl)-2-[[6-[4-(2-hydroxyethyl)piperazin-1-yl]-2-methylpyrimidin-4-yl]amino]-1,3-thiazole-5-carboxamide] |  |  |  |  |  | 0.8 µM | 1.5 µM | 3 µM | 1.9 µM | 10 µM | 6.5 µM | 2 µM | 0.9 µM |
| 30 µM | 25 µM | 30 µM | COc1cc2ncnc(Nc3ccc(F)c(Cl)c3)c2cc1OCCCN1CCOCC1 [gefitinib, N-(3-chloro-4-fluorophenyl)-7-methoxy-6-(3-morpholin-4-ylpropoxy)quinazolin-4-amine] |  |  |  |  |  | 20 µM | 30 µM | 30 µM | 40 µM | 40 µM | 20 µM | 7.5 µM | 10 µM |
|  |  |  | CC(=O)Nc1cccc(-n2c(=O)n(C3CC3)c(=O)c3c(Nc4ccc(I)cc4F)n(C)c(=O)c(C)c32)c1 [trametinib, N-[3-[3-cyclopropyl-5-(2-fluoro-4-iodoanilino)-6,8-dimethyl-2,4,7-trioxopyrido[4,3-d]pyrimidin-1-yl]phenyl]acetamide] |  |  |  |  | statistically significant increases |  |  |  |  |  |  |  |  |

— patent US20260115209A1, “COMBINATION THERAPY INCLUDING COX-2 INHIBITOR FOR THE TREATMENT OF CANCER” (THE REGENTS OF THE UNIVERSITY OF CALIFORNIA, priority 2022, published 2026)
